Publication PMC6584507 (Scientific Reports, 2019)
Converted amounts (≈) assume the structure as drawn.

How the values were obtained:
[1] = target: T1, FLAG-tagged hTSLP bound to His-tagged hTSLPR (Homo sapiens, UniProt Q969D9); assay: Pull-down assay, His-tagged hTSLPR and FLAG-tagged hTSLP, Western blotting; type: binding; conditions: compound at 0, 10, 50 and 100 μM
T1 construct: human TSLP28–159 with thrombin cleavage site at C-terminus; thrombin cleavage site (C); 8xHis (from vector pAB-bee-8xHis) (C, cleaved yes); made in house; host or cells: Trichoplusia ni High-Five cells, baculovirus (secreted)

[2] = tested on: STAT5 phosphorylation in hTSLP-stimulated HMC-1 cells; assay: STAT5 assay (STAT5 phosphorylation, flow cytometry); type: cell-based, human
Description: (§1) HMC-1 cells were obtained from the Department of Food Technology and Inflammatory Disease Research Center (Hoseo University, Asan, Chungnam, Korea). Cells were cultured in Iscove’s modified Dulbecco’s medium (IMDM; Hyclone Laboratories Inc, USA) supplemented with 10% FBS and 1% Penicillin-streptomycin (PS; Gibco Industries Inc, USA) and incubated at 37 °C under humidified atmosphere of 95% air and 5% CO2. Recombinant hTSLP was purchased from R&D Systems (Minneapolis, USA).
Intracellular phospho-STAT5 (pSTAT5) staining method was based on the protocol obtained from the laboratory of Susan Kaech, Department of Immunobiology, Yale University School of Medicine (New Haven, Connecticut, USA). Briefly, HMC-1 cells were seeded in 96-well U-bottom plate at a density of 1 × 10^7 cells/mL and stimulated with 100 ng/mL recombinant hTSLP alone or with 1 for 30 min. After stimulation, cells were fixed with BD Cytofix/Cytoperm (BD Biosciences, USA) solution for 10 min. Fixed cells were then permeabilized with ice-cold methanol for 30 min, and intracellular pSTAT5 was stained with Alexa Fluor 647 mouse anti-STAT5 (pY694; BD Biosciences, USA) (1:10 dilution in FACS buffer) for 30 min. Stained cells were further fixed with BD Cytofix/Cytoperm solution for 10 min and re-suspended in FACS buffer for flow cytometry analysis. Cells were analyzed by a BD LSR Fortessa Flow cytometry (BD Biosciences, USA). FACS data were analyzed using FlowJo software Ver 9. 7. 6 (Tree Star Inc., USA).

[3] = tested on: pSTAT5 in TSLP-stimulated HMC-1 cells; assay: Western blot analysis of STAT5 phosphorylation; type: cell-based, human; conditions: HMC-1 cells pretreated, TSLP 20 ng/mL for 2 h
Description: as §1
[…] Activated cells were lysed and separated by 10% sodium dodecyl sulfate-polyacrylamide gel electrophoresis (SDS-PAGE). After electrophoresis, proteins were transferred to nitrocellulose membranes. The membranes were blocked, incubated with primary antibodies (1:700 dilution in PBS with 0.05% Tween-20), and developed using peroxidase-conjugated secondary antibodies (1:3000 dilution in PBS with 0.05% Tween-20). Proteins were visualized by enhanced chemiluminescence (Amersham Bioseciences, Piscataway, NJ, USA) according to the manufacturer’s instructions.

[4] = Kinetic aqueous solubility; type: physicochemical; conditions: 0.1 M potassium phosphate buffer, kinetic from dmso stock, PBS / phosphate buffer pH 7.4
Description: In brief, 10 mM stock solution of tested compounds was prepared in DMSO. 25 μL of the stock solution was added to a 1-mL uniprep vial containing 475 μL of 0.1 M potassium phosphate buffer (pH 7.4), and was shaken at 800 rpm for 90 min at room temperature. Following shaking, the mixture was filtered by slowly pressing the upper tube of the 1 mL Mini-Uniprep^TM filter (PTFE membrane, 0.45 μm). 250 μL of the filtrate solution was then transferred to a HPLC vial containing equal volume of acetonitrile.

HDM-challenged mice = assay: HDM-induced mouse model of allergic airway inflammation; type: in vivo; conditions: 1 (200 μg/mL) on day 4, 6 and 8; analysis on day 11
Description: Approximately 1 × 10^6 CD4 T cells from DO11.10 mice were transferred to naïve BALB/c mice intravenously. The following day, mice were challenged with a mixture of HDM (50 μg of Dermatophagoides farinae and Dermatophagoides pteronyssinus each; Greer Laboratories, Inc., USA) and 100 μg of OVA (Sigma-Aldrich Co., USA) for three days via the intranasal route. Mice were treated with 1 (200 μg) or PBS intraperitoneally three times every other day starting from […] post-challenge based on previous report. Allergen-challenged mice were sacrificed on day 11 post-challenge. […] The total cell number was counted using a hemocytometer. Leukocytes were transferred to glass slides by Cytospin (Thermo Scientific, USA) at 2,800 rpm for 5 min, and stained with Diff-Quick staining (Sysmex Corporation, Japan). Flow cytometry analysis: […] Cells were stained with anti-CD4 FITC (RM4-5, Biolegend Inc., USA), anti-CD127 PE/Cy7 (A7R34, Biolegend Inc., USA), anti-CD62L APC/Cy7 (MEL14, Biolegend Inc., USA), anti-CD27 PE (LG.7F9, eBioscience Inc., USA), and anti-DO11.10APC (KJ1-26, eBioscience Inc., USA) antibodies for 30 min. Stained cells were examined by flow cytometry using LSR Fortessa ^TM. Data were analyzed using FlowJo software Ver 9.7.6.

[5] = tested on: OVA-sensitized and challenged mice; assay: OVA-induced mouse model of allergic airway inflammation; type: in vivo
Description: Sensitization and airway challenge: For initial sensitization, BALB/c mice were administered intraperitoneally on day 0 with 20 μg of OVA emulsified in 200 μL of sterile PBS containing 1 mg of aluminum hydroxide adjuvant (Imject® Alum, Thermofisher, Korea). On day 14, the mice were boosted with the same allergen by IP injection. […] The mice were sacrificed at the indicated time points and BAL was performed. […] The control group received vehicle only. BAL: Immediately after sacrifice, lungs were lavaged as described above. Total leukocyte numbers were counted. Differential cell counts were performed by counting at least 200 cells on cytocentrifuged samples stained with Diff-Quick solution.

hTSLP = target: T2, hTSLP (Homo sapiens, UniProt Q969D9); assay: 1D and CPMG relaxation-edited NMR ligand binding; conditions: 1 at 100 μM, PBS buffer condition
T2 construct: human TSLP28–159 with thrombin cleavage site at C-terminus; thrombin cleavage site (C); 8xHis (from vector pAB-bee-8xHis) (C, cleaved yes); made in house; host or cells: Trichoplusia ni High-Five cells, baculovirus (secreted)

carbonic anhydrase = assay: 1D and CPMG relaxation-edited NMR ligand binding; conditions: 1 at 100 μM, 2.5 μM carbonic anhydrase
Description: (§2) All spectra were measured at 283, 291, and 298 K. Data processing and analysis were conducted using TopSpin 3.1 program (Bruker, Germany). One-dimensional (1D) relaxation-edited experiments were performed using the method previously described by Hadjuk et al.[23]. We used CPMG pulse train with a pre-acquisition delay of 1.8 s, a 2 ms delay for dephasing and rephrasing in spin echo, and a total spin-lock time of 400 ms. The data were collected using a spectral width of 9,615 Hz and 128 scans.

hTSLPR = target: T3, hTSLPR (Homo sapiens, UniProt Q9HC73); assay: 1D and CPMG relaxation-edited NMR ligand binding; conditions: 1 at 100 μM, 2.5 μM hTSLPR
T3 construct: human TSLPR26–217 with C-terminal octa-histidine tag (hTSLPR-His); 8xHis (C); made in house; host or cells: Trichoplusia ni High-Five cells, baculovirus (secreted)
T3 sequence (Q9HC73 26-217): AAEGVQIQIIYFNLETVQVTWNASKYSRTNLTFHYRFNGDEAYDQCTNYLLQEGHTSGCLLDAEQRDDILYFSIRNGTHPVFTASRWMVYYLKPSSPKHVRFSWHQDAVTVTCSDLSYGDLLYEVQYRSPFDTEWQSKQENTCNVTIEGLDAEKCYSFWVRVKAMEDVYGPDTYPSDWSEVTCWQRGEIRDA
Description: as §2

[6] = tested on: ovalbumin (OVA)-treated mice; conditions: cited from earlier work
[7] = tested on: house dust mite (HDM)-challenged mice; conditions: cited from earlier work

T2 sequence (Q969D9 28-159): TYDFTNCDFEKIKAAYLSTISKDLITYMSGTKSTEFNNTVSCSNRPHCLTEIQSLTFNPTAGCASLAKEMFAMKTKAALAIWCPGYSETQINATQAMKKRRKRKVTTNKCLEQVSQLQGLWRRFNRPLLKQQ
T1 sequence (Q969D9 28-159): as above

Which “amount of FLAG-tagged hTSLP bound to His-tagged hTSLPR” value [1] does the source give for `O=c1cc(-c2ccccc2)oc2cc(O)c(O)c(O)c12` [Compound 1, baicalein] here?
Its value is “reduced in a dose-dependent manner”.

What about the STAT5 phosphorylation % ([2]; 3 µM) of the same compound?
Its STAT5 phosphorylation % is 65.7%.

And the STAT5 phosphorylation % ([2]; 10 μM)?
Its STAT5 phosphorylation % is 61.6%.

And the “hTSLP inhibitory activity in the in vitro STAT5 assay (in words)” value ([2]; HMC-1 cells, hTSLP 100 ng/mL, 30 min, compound 1 at 3 or 10 μM)?
Its value is “inhibited”.

And the “inhibition of STAT5 phosphorylation, Western blot (in words)” value [3]?
Its value is “dose-dependent inhibition”.

And the solubility kinetic at 90 min [4]?
Its solubility kinetic at 90 min is 62 µM (≈ 16.8 µg/mL).

And the “number of allergen-specific T cells” value (HDM-challenged mice)?
The value was “not changed”.

And the “number of eosinophils in BALF vs PBS-treated control” value (HDM-challenged mice)?
Its value is “substantially reduced”.

And the “total number of leukocytes in BALF vs PBS control” value (HDM-challenged mice)?
Its value is “comparable”.

And the “number of eosinophils recruited to the airways” value ([5]; 100 mg/kg IP, BALF 48 h)?
Its value is “significantly reduced”.

What about the “eosinophil numbers in BALF over time” value ([5]; 100 mg/kg IP, as early as 24 h post injection, up to 72 h) of the same compound?
Its value is “decreased”.

And the “inhibition of airway inflammation” value ([5]; single IP administration, 10, 50 or 100 mg/kg, BALF 48 h)?
Its value is “dose-dependent manner”.

And the “1D NMR signals of the compound in the presence of the protein” value (“1D NMR signals of the compound” for short) (hTSLP)?
Its value is “significantly broadened”.

What about the “1D NMR signals of the compound” value (carbonic anhydrase) of the same compound?
The value was “no signal broadening”.

What about the “1D NMR signals of the compound” value (hTSLPR) of the same compound?
The value was “no signal broadening”.

And the airway inflammation [6]?
Its airway inflammation is “reduce”.

And the skin severity scores [7]?
Its skin severity scores is “lower”.
